In BigSolDB 2.1:

O=C(O)/C=C/c1ccccc1Cl
Settings | solubility (mole fraction)
in 2-butanone, 272.15 K | 0.00431
in 2-butanone, 278.45 K | 0.00535
in 2-butanone, 283.35 K | 0.00626
in 2-butanone, 288.35 K | 0.00733
in 2-butanone, 292.75 K | 0.00837
in 2-butanone, 297.75 K | 0.00968
in 2-butanone, 302.55 K | 0.0111
in 2-butanone, 307.05 K | 0.0126
in 2-butanone, 312.35 K | 0.0145
in 2-butanone, 317.05 K | 0.0164
in 2-butanone, 321.45 K | 0.0183
in 2-pentanone, 272.15 K | 0.00424
in 2-pentanone, 278.45 K | 0.00526
in 2-pentanone, 283.35 K | 0.00618
in 2-pentanone, 288.35 K | 0.00723
in 2-pentanone, 292.75 K | 0.00827
in 2-pentanone, 297.75 K | 0.0096
in 2-pentanone, 302.55 K | 0.011
in 2-pentanone, 307.05 K | 0.0125
in 2-pentanone, 312.35 K | 0.0144
in 2-pentanone, 317.05 K | 0.0163
in 2-pentanone, 321.45 K | 0.0182
in acetone, 272.15 K | 0.00376
in acetone, 278.45 K | 0.00474
in acetone, 283.35 K | 0.00563
in acetone, 288.35 K | 0.00668
in acetone, 292.75 K | 0.00771
in acetone, 297.75 K | 0.00907
in acetone, 302.55 K | 0.0105
in acetone, 307.05 K | 0.012
in acetone, 312.35 K | 0.014
in acetone, 317.05 K | 0.016
in acetone, 321.45 K | 0.0181
in acetonitrile, 272.15 K | 0.000253
in acetonitrile, 278.45 K | 0.000362
in acetonitrile, 283.35 K | 0.000474
in acetonitrile, 288.35 K | 0.000617
in acetonitrile, 292.75 K | 0.000773
in acetonitrile, 297.75 K | 0.000994
in acetonitrile, 302.55 K | 0.00125
in acetonitrile, 307.05 K | 0.00154
in acetonitrile, 312.35 K | 0.00195
in acetonitrile, 317.05 K | 0.0024
in acetonitrile, 321.45 K | 0.00289
in ethanol, 272.15 K | 0.00229
in ethanol, 278.45 K | 0.00295
in ethanol, 283.45 K | 0.0036
in ethanol, 288.35 K | 0.00431
in ethanol, 292.85 K | 0.00508
in ethanol, 298.15 K | 0.00614
in ethanol, 302.95 K | 0.00722
in ethanol, 307.35 K | 0.00833
in ethanol, 312.05 K | 0.00969
in ethanol, 316.55 K | 0.0112
in ethanol, 321.55 K | 0.013
in ethyl acetate, 272.15 K | 0.00231
in ethyl acetate, 278.45 K | 0.00294
in ethyl acetate, 283.35 K | 0.00351
in ethyl acetate, 288.35 K | 0.00417
in ethyl acetate, 292.75 K | 0.00484
in ethyl acetate, 297.75 K | 0.00571
in ethyl acetate, 302.55 K | 0.00665
in ethyl acetate, 307.05 K | 0.00764
in ethyl acetate, 312.35 K | 0.00894
in ethyl acetate, 317.05 K | 0.0102
in ethyl acetate, 321.45 K | 0.0116
in ethyl formate, 272.15 K | 0.000925
in ethyl formate, 278.45 K | 0.00124
in ethyl formate, 283.35 K | 0.00155
in ethyl formate, 288.35 K | 0.00193
in ethyl formate, 292.75 K | 0.00232
in ethyl formate, 297.75 K | 0.00285
in ethyl formate, 302.55 K | 0.00345
in ethyl formate, 307.05 K | 0.0041
in ethyl formate, 312.35 K | 0.00497
in ethyl formate, 317.05 K | 0.0059
in ethyl formate, 321.45 K | 0.00688
in isobutanol, 272.15 K | 0.0013
in isobutanol, 278.45 K | 0.00167
in isobutanol, 283.45 K | 0.00211
in isobutanol, 288.35 K | 0.00266
in isobutanol, 292.85 K | 0.00324
in isobutanol, 298.15 K | 0.00403
in isobutanol, 302.95 K | 0.00489
in isobutanol, 307.35 K | 0.00591
in isobutanol, 312.05 K | 0.00724
in isobutanol, 316.55 K | 0.00855
in isobutanol, 321.55 K | 0.0106
in isopentanol, 272.15 K | 0.00208
in isopentanol, 278.45 K | 0.00259
in isopentanol, 283.45 K | 0.00322
in isopentanol, 288.35 K | 0.00396
in isopentanol, 292.85 K | 0.00475
in isopentanol, 298.15 K | 0.0058
in isopentanol, 302.95 K | 0.00691
in isopentanol, 307.35 K | 0.00821
in isopentanol, 312.05 K | 0.00988
in isopentanol, 316.55 K | 0.0115
in isopentanol, 321.55 K | 0.014
in isopropanol, 272.15 K | 0.00181
in isopropanol, 278.45 K | 0.00245
in isopropanol, 283.45 K | 0.00309
in isopropanol, 288.35 K | 0.00385
in isopropanol, 292.85 K | 0.00468
in isopropanol, 298.15 K | 0.00585
in isopropanol, 302.95 K | 0.00712
in isopropanol, 307.35 K | 0.00848
in isopropanol, 312.05 K | 0.0101
in isopropanol, 316.55 K | 0.012
in isopropanol, 321.55 K | 0.0144
in methanol, 272.15 K | 0.00174
in methanol, 278.45 K | 0.00224
in methanol, 283.45 K | 0.00273
in methanol, 288.35 K | 0.00328
in methanol, 292.85 K | 0.00387
in methanol, 298.15 K | 0.00465
in methanol, 302.95 K | 0.00549
in methanol, 307.35 K | 0.0064
in methanol, 312.05 K | 0.00739
in methanol, 316.55 K | 0.00857
in methanol, 321.55 K | 0.01
in methyl acetate, 272.15 K | 0.00189
in methyl acetate, 278.45 K | 0.00244
in methyl acetate, 283.35 K | 0.00296
in methyl acetate, 288.35 K | 0.00358
in methyl acetate, 292.75 K | 0.00422
in methyl acetate, 297.75 K | 0.00505
in methyl acetate, 302.55 K | 0.00596
in methyl acetate, 307.05 K | 0.00694
in methyl acetate, 312.35 K | 0.00823
in methyl acetate, 317.05 K | 0.00956
in methyl acetate, 321.45 K | 0.0109
in n-butanol, 272.15 K | 0.00231
in n-butanol, 278.45 K | 0.00288
in n-butanol, 283.45 K | 0.00356
in n-butanol, 288.35 K | 0.00438
in n-butanol, 292.85 K | 0.00522
in n-butanol, 298.15 K | 0.00636
in n-butanol, 302.95 K | 0.00757
in n-butanol, 307.35 K | 0.00895
in n-butanol, 312.05 K | 0.0107
in n-butanol, 316.55 K | 0.0124
in n-butanol, 321.55 K | 0.0151
in n-pentanol, 272.15 K | 0.00268
in n-pentanol, 278.45 K | 0.0033
in n-pentanol, 283.45 K | 0.00404
in n-pentanol, 288.35 K | 0.00491
in n-pentanol, 292.85 K | 0.00583
in n-pentanol, 298.15 K | 0.00704
in n-pentanol, 302.95 K | 0.00832
in n-pentanol, 307.35 K | 0.00977
in n-pentanol, 312.05 K | 0.0116
in n-pentanol, 316.55 K | 0.0134
in n-pentanol, 321.55 K | 0.0162
in n-propanol, 272.15 K | 0.00202
in n-propanol, 278.45 K | 0.00267
in n-propanol, 283.45 K | 0.00332
in n-propanol, 288.35 K | 0.00408
in n-propanol, 292.85 K | 0.0049
in n-propanol, 298.15 K | 0.00602
in n-propanol, 302.95 K | 0.00723
in n-propanol, 307.35 K | 0.00848
in n-propanol, 312.05 K | 0.01
in n-propanol, 316.55 K | 0.0117
in n-propanol, 321.55 K | 0.0139
in toluene, 272.15 K | 0.000149
in toluene, 278.45 K | 0.000225
in toluene, 283.35 K | 0.000307
in toluene, 288.35 K | 0.000415
in toluene, 292.75 K | 0.000538
in toluene, 297.75 K | 0.000716
in toluene, 302.55 K | 0.000932
in toluene, 307.05 K | 0.00119
in toluene, 312.35 K | 0.00156
in toluene, 317.05 K | 0.00197
in toluene, 321.45 K | 0.00246
